For one assay, the system named is CETP. As to the kind of experiment: CETP activity in hamster plasma after oral dosing: [3H]CE transfer from donor [3H]CE-HDL3 to hamster apoB-containing lipoprotein. It is filed as in vivo, normal syrian hamsters. The note with it: proportion relative to control group = 100%; for CETP Inhibitory Activity (%): Test 1, plasma 4 hours after olive oil; for CETP Inhibitory Activity (%) (8 hours): Test 2, 30 mg/kg oral, plasma 8 hours after oil loading. On the procedure: Potassium bromide (KBr) was added to plasma (40 mL) of a healthy subject, adjusted to have a specific density d=1.125 g/mL, and subjected to fractional ultracentrifugation (288,000×g, 4° C., 18 to 20 hr), and a fraction showing a specific density of d>1.125 g/mL (HDL3 fraction) was harvested. The obtained fraction was dialyzed against PBS solution [10 mmol/L Na2HPO4; 10 mmol/L NaH2PO4; 0.15 mol/L NaCl; 1 mmol/L EDTA (pH 7.4)]. Then, tritium-labeled cholesterol (37 MBq) was dissolved in 95% ethanol, gradually added to the above-mentioned HDL3 fraction with stirring and incubated at 37° C. for 18 to 24 hr. [By this operation, tritium-labeled cholesterol was esterified by the action of lecithin cholesterol acyl transferase (LCAT) present on the HDL3 surface and taken up into HDL3 as tritium-labeled cholesteryl ester ([^3H]CE)]. After incubation, KBr was added, the specific density was adjusted to d=1.21 g/mL, and subjected to fractional ultracentrifugation (285,000×g, 4° C., 70 to 90 hr), and a fraction of specific density […] was harvested. The obtained fraction was dialyzed against the aforementioned PBS solution to give HDL3 incorporating [^3H]CE ([^3H]CE-HDL3, specific density: 1.125<d<1.21, specific activity: 22,000-33,000 dpm/μL) as a donor lipoprotein.
(§1) Three kinds of CETP inhibitors (compound A: 40 mg/kg, compound B: 3 mg/kg, compound C: 3 mg/kg) suspended in 0.5% aqueous methylcellulose were orally administered to normal syrian hamsters (male, 13-week old). Only 0.5% aqueous methylcellulose was administered to the control group. After 30 minutes, olive oil at a dose of 2 mL/kg was orally loaded. Blood was collected from ophthalmic venous plexus 4 hours after the administration of olive oil, and plasma triglyceride (TG) concentration and CETP inhibitory activity were measured. Plasma triglyceride (TG) concentration was measured by enzymatic method. For CETP activity, the amount of [^3H]CE transferred from donor lipoprotein ([^3H]CE-HDL3) to acceptor lipoprotein (hamster apoB-containing lipoprotein) was used as index.
(§2) Using a test system similar to Test 1, the effects of compound B (30 mg/kg) and compound C (30 mg/kg) in normal syrian hamsters (male, 12-week old) were examined. Blood collection was carried out at 4 and 8 hours after oil loading, and plasma triglyceride (TG) concentration and CETP inhibitory activity were measured.

Assay [1] relates to lipid absorption in the small intestine. The experiment in a line: Inhibitory effect on lipid absorption in the small intestine: plasma triglyceride after oral olive oil loading in hamsters. It is filed as in vivo, normal syrian hamsters. The note with it: control group = 100%; for TG Concentration (%): Test 1, olive oil 2 mL/kg 30 min later, plasma 4 hours after olive oil, male 13-week old hamsters; for TG Concentration (4 hours) / TG Concentration (%) (8 hours): Test 2, 30 mg/kg oral, male 12-week old hamsters; for TG Concentration (4 hours): plasma 4 hours after oil loading; for TG Concentration (%) (8 hours): plasma 8 hours after oil loading. On the procedure:
Test of Inhibitory Effect on Lipid Absorption in the Small Intestine by Various CETP Inhibitors in Hamsters
as §1, §2

Where [2] appears, read: 3 mg/kg oral in 0.5% methylcellulose.

The structures appear in SMILES notation.

Regarding `CCC(CC)CC1(C(=O)Nc2ccccc2SC(=O)C(C)C)CCCCC1` [Compound A, S-{2-([[1-(2-ethylbutyl)cyclohexyl]carbonyl]amino)phenyl}2-methylpropanethioate], the “CETP Inhibitory Activity (%)” value with CETP (40 mg/kg oral) came out at 83%. Besides, in assay [1] (40 mg/kg oral in 0.5% methylcellulose), the “TG Concentration (%)” value worked out at 87%.

In the case of `CCN(C[C@H]1CC[C@H](CC(=O)O)CC1)c1cc(C)c(C(F)(F)F)cc1CN(Cc1cc(C(F)(F)F)cc(C(F)(F)F)c1)c1nnn(C)n1.CS(=O)(=O)O` [Compound B, trans-(4-{[N-(2-{[N′-[3,5-bis(trifluoromethyl)benzyl]-N′-(2-methyl-2H-tetrazol-5-yl)amino]methyl}-5-methyl-4-trifluoromethylphenyl)-N-ethylamino]methyl}cyclohexyl)acetic acid methanesulfonate], the “CETP Inhibitory Activity (%)” value in the assay on CETP (3 mg/kg oral) came out at 29%. Further, the “CETP Inhibitory Activity (%) (8 hours)” value with CETP amounted to 29%. Moreover, the “TG Concentration (%)” value in assay [1] (setting [2]) is recorded as 69%. In assay [1], the “TG Concentration (4 hours)” value amounted to 66% and the “TG Concentration (%) (8 hours)” value is recorded as 56%.

For `CCOC(=O)N1c2ccc(C(F)(F)F)cc2[C@@H](N(Cc2cc(C(F)(F)F)cc(C(F)(F)F)c2)C(=O)OC)C[C@H]1CC` [Compound C], in the assay with CETP (3 mg/kg oral), the “CETP Inhibitory Activity (%)” value is recorded as 20%. For the same compound, the “CETP Inhibitory Activity (%) (8 hours)” value in the assay with CETP is reported as 37%. In assay [1] (setting [2]), the “TG Concentration (%)” value is given as 69%. Moreover, in assay [1], the “TG Concentration (4 hours)” value turned out to be 85% and the “TG Concentration (%) (8 hours)” value was 71%.

For the origin of these results see US20060270705A1, “Method for inhibiting lipid absorption and lipid absorption inhibitor” (Japan Tobacco Inc., priority 2005, published 2006).
